This note sets out measurements from patent publication US11312712B2, “Azabenzimidazoles and their use as AMPA receptor modulators” (Janssen Pharmaceutica NV, priority 2015, dated 2022).

Sequence of GluA1o-γ8 (GRIA1o-CACNG8 fusion construct) (P42261 other isoform, or with tags, fused parts or gaps): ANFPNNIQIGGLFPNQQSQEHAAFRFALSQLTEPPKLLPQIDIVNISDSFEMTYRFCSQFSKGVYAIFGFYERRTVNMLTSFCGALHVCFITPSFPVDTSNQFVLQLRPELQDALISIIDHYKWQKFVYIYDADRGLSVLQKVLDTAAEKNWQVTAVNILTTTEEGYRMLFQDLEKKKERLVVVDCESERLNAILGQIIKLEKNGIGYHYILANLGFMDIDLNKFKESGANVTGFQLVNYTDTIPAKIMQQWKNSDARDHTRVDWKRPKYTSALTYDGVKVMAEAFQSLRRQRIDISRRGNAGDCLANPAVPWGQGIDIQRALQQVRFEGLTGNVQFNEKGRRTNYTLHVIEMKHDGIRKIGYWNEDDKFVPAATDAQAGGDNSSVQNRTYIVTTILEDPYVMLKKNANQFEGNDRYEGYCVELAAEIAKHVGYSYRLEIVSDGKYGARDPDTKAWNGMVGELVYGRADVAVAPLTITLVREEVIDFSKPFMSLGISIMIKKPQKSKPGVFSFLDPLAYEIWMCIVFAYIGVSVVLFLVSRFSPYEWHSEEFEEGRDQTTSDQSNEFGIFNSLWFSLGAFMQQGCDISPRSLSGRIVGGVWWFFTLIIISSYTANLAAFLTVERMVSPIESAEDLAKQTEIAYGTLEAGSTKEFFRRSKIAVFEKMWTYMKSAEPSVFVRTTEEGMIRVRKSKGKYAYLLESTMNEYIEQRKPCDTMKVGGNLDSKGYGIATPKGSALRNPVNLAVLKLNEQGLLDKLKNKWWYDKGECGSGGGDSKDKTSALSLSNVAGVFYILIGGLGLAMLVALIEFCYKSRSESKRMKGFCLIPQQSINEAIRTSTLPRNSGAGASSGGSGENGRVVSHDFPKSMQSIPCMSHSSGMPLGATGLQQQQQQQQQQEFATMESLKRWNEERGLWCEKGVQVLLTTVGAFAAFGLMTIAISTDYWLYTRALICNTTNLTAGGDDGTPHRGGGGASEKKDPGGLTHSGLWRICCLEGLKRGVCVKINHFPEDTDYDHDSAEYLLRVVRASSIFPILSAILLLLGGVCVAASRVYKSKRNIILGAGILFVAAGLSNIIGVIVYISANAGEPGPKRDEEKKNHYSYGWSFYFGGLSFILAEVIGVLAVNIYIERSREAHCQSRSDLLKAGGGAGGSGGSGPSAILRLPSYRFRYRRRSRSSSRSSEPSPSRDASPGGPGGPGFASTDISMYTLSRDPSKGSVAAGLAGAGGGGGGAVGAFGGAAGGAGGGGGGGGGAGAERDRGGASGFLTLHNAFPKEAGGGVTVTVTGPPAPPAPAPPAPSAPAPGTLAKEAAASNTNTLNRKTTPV

This assay has as its target GluA1o-γ8 (GRIA1o-CACNG8 fusion construct) (Homo sapiens (Human), UniProt P42261+Q8WXS5). Nature of the assay: Calcium flux assay (FLIPR), inhibition of TARP γ8 dependent AMPA receptor activity. Type of assay: cell-based. The conditions noted are these: GluA1o-γ8 (GRIA1o-CACNG8 fusion) in HEK293 cells, calcium flux after 15 μM glutamate. The text has this: This assay was used to test compounds for their ability to inhibit TARP γ8 dependent AMPA receptor activity. The AMPA receptor is a non-selective cation channel activated by glutamate. Ionotropic glutamate receptors normally desensitize too rapidly to allow detectable calcium influx in a FLIPR assay (Strange et al. (2006). “Functional characterisation of homomeric ionotropic glutamate receptors GluR1-GluR6 in a fluorescence-based high throughput screening assay.” Comb Chem High Throughput Screen 9(2): 147-158). But, this desensitization is incomplete, and a substantial steady-state current remains in the sustained presence of glutamate (Cho et al. (2007). “Two families of TARP isoforms that have distinct effects on the kinetic properties of AMPA receptors and synaptic currents.” Neuron 55(6): 890-904).
An in vitro assay was used to determine the potency of test compounds as inhibitors of the glutamate response of the channel formed by GluA1o-γ8. To ensure a 1:1 stoichiometry of GluA1o and γ8 subunits in the expressed channel, a fusion of the cDNAs for GRIA1o and CACNG8 was used. Following Shi et al (2009) “The stoichiometry of AMPA receptors and TARPs varies by neuronal cell type.” Neuron 62(5): 633-640), the C-terminus of the cDNA for GRIA1o was fused to the N-terminus of the cDNA for γ8. The linker sequence was QQQQQQQQQQEFAT. Channels expressed with this construct appear to have similar properties to channels formed by co-expression of GRIA1o with an excess of CACNG8 (Shi et al. 2009). A clonal cell line in HEK293 cells stably expressing this construct, with a geneticin selection marker, was generated for use in this assay.
Cell expressing the GRIA1o-CACNG8 fusion construct were grown in a monolayer in 96- or 384-well microtiter plates. They were washed with assay buffer (135 mM NaCl, 4 mM KCl, 3 mM CaCl2, 1 mM MgCl2, 5 mM glucose, 10 mM HEPES, pH 7.4, 300 mOs) using a Biotek EL405 plate washer. The cells were then loaded with a calcium-sensitive dye (Calcium-5 or Calcium-6, Molecular Devices) and the test compounds at a range of concentrations. Calcium flux following the addition of 15 μM glutamate was monitored using a Molecular Devices FLIPR Tetra. The fluorescence in each well was normalized to the fluorescence of negative and positive control wells. The negative control wells had no added compounds, and the positive control wells had been incubated with 10 μM CP465022 (a non-subtype-selective AMPA receptor antagonist) (Lazzaro et al. (2002). “Functional characterization of CP-465,022, a selective, noncompetitive AMPA receptor antagonist.” Neuropharmacology 42(2): 143-153). The responses to glutamate as functions of the test compound concentrations were fitted to a four-parameter logistic function. The fitted parameter corresponding to the midpoint was taken to be the potency of inhibition of the compound. The data in Table 4 below illustrates the observed potentcy for the compounds described herein. pIC50 refers to the negative log of the IC50 in molar.
(In general: Calcium assays in cells follow changes in intracellular calcium, usually with a dye or a luminescent sensor.)
The IC50 is the concentration needed to halve the response being measured. In the case of `CC(C)c1cc2ccc(C(F)(F)F)nc2n1-c1ccc2c(c1)CC(=O)N2` [Example 396, 5-[2-Isopropyl-6-(trifluoromethyl)pyrrolo[2,3-b]pyridin-1-yl]indolin-2-one], the IC50 was 0.0126 nM.

Consider `CC(C)c1ccc2nc(-c3ccc(F)cc3)n(-c3ccc4[nH]ncc4c3)c2n1` [Example 120, 2-(4-Fluorophenyl)-3-(1H-indazol-5-yl)-5-isopropyl-imidazo[4,5-b]pyridine], for which the half-maximal inhibitory concentration (IC50) is 0.0501 nM.

As for `O=C1Cc2cc(-n3c(C4CC4)nc4ccc(C(F)(F)F)nc43)ccc2N1` [Example 55, 5-[2-Cyclopropyl-5-(trifluoromethyl)imidazo[4,5-b]pyridin-3-yl]indolin-2-one], the IC50 was 7.94 nM.

Regarding `FC(F)(F)c1ccc2nc(C(F)(F)F)n(-c3cc(Br)c4[nH]ncc4c3)c2n1` [Example 187, 3-(7-Bromo-1H-indazol-5-yl)-2,5-bis(trifluoromethyl)imidazo[4,5-b]pyridine], the IC50 is 0.01 nM.

For the compound `Cc1cc(-n2c(C(F)(F)F)nc3cccnc32)cc2c1NC(=O)C2` [Example 318, 7-Methyl-5-[2-(trifluoromethyl)imidazo[4,5-b]pyridin-3-yl]indolin-2-one], the IC50 was 31.6 nM.

With `Cc1cc(O)c2nc(-c3ccc(F)cc3)n(-c3ccc4[nH]c(=O)sc4c3)c2n1` [Example 72, 6-(2-(4-Fluorophenyl)-7-hydroxy-5-methyl-3H-imidazo[4,5-b]pyridin-3-yl)benzo[d]thiazol-2(3H)-one], the IC50 is 25.1 nM.

Turning to `Cc1cc(-n2c(C(C)C)nc3c(N(C)CCF)cc(C(F)(F)F)nc32)cc2cn[nH]c12` [Example 214, N-(2-Fluoroethyl)-2-isopropyl-N-methyl-3-(7-methyl-1H-indazol-5-yl)-5-(trifluoromethyl)imidazo[4,5-b]pyridin-7-amine], the IC50 is 0.158 nM.

On to `CC(C)Cc1nc2ccc(C(F)(F)F)nc2n1-c1ccc2c(c1)CC(=O)N2` [Example 51, 5-[2-Isobutyl-5-(trifluoromethyl)imidazo[4,5-b]pyridin-3-yl]indolin-2-one], for which the IC50 was 10 nM.

Take `C=CCc1cc(-n2c(C(F)(F)F)nc3ccc(C(F)(F)F)nc32)cc2cn[nH]c12` [Example 304, 3-(7-Allyl-1H-indazol-5-yl)-2,5-bis(trifluoromethyl)-3H-imidazo[4,5-b]pyridine]: the IC50 was 63.1 nM.

Consider `O=C(c1nc2ccc(C(F)(F)F)nc2n1-c1ccc2[nH]ncc2c1)N1CCCC1` [Example 173, [3-(1H-Indazol-5-yl)-5-(trifluoromethyl)imidazo[4,5-b]pyridin-2-yl]-pyrrolidin-1-yl-methanone], for which the IC50 was 10000 nM.

Turning to `O=c1[nH]c2ccc(-n3c(C4CCC4)nc4ccc(C(F)(F)F)nc43)cc2s1` [Example 132, 6-[2-Cyclobutyl-5-(trifluoromethyl)imidazo[4,5-b]pyridin-3-yl]-3H-1,3-benzothiazol-2-one], the IC50 was 0.0631 nM.

As to `Cc1cc(-n2c(C(F)(F)F)nc3ccc(C(F)F)nc32)cc2cn[nH]c12` [Example 326, 5-(Difluoromethyl)-3-(7-methyl-1H-indazol-5-yl)-2-(trifluoromethyl)imidazo[4,5-b]pyridine], the IC50 is 0.0398 nM.

On to `Cc1cc2cccnc2n1-c1cc(Cl)c2[nH]ncc2c1` [Example 333, 1-(7-Chloro-1H-indazol-5-yl)-2-methyl-pyrrolo[2,3-b]pyridine], for which the IC50 is 6.31 nM.

In the case of `FC(F)(F)c1ccc2nc(C3CC3)n(-c3ccc4[nH]ncc4c3)c2n1` [Example 43, 2-Cyclopropyl-3-(1H-indazol-5-yl)-5-(trifluoromethyl)imidazo[4,5-b]pyridine], the half-inhibitory concentration (IC50) was 2 nM.

As for `Cc1ccc2nc(C(C)(F)F)n(-c3ccc4c(c3)CC(=O)N4)c2n1` [Example 146, 5-[2-(1,1-Difluoroethyl)-5-methyl-imidazo[4,5-b]pyridin-3-yl]indolin-2-one], the IC50 is 39.8 nM.

In the case of `CCCc1nc2ccc(C(F)(F)F)nc2n1-c1cc(Cl)c2[nH]ncc2c1` [Example 412, 3-(7-Chloro-1H-indazol-5-yl)-2-propyl-5-(trifluoromethyl)-3H-imidazo[4,5-b]pyridine], the IC50 is 0.126 nM.

On to `FC(F)(F)c1cnc2c(c1)nc(C(F)(F)F)n2-c1cc(Cl)c2[nH]ncc2c1` [Example 419, 3-(7-Chloro-1H-indazol-5-yl)-2,6-bis(trifluoromethyl)-3H-imidazo[4,5-b]pyridine], for which the IC50 was 0.631 nM.

`CC(C)(C)c1nc2ccc(C(F)(F)F)nc2n1-c1ccc2c(c1)CC(=O)N2` [Example 61, 5-[2-tert-Butyl-5-(trifluoromethyl)imidazo[4,5-b]pyridin-3-yl]indolin-2-one]: the IC50 was 12.6 nM.

Take `O=c1[nH]c2ccc(-n3c(C4CC4)nc4ccc(C(F)(F)F)nc43)cc2s1` [Example 41, 6-[2-Cyclopropyl-5-(trifluoromethyl)imidazo[4,5-b]pyridin-3-yl]-3H-1,3-benzothiazol-2-one]: the IC50 was 0.398 nM.

Regarding `Cc1cc(-n2cc(O)c3ccc(C(F)(F)F)nc32)cc2cn[nH]c12` [Example 339, 1-(7-Methyl-1H-indazol-5-yl)-6-(trifluoromethyl)pyrrolo[2,3-b]pyridin-3-ol], the IC50 was 79.4 nM.

`O=c1[nH]c2ccc(-n3c(-c4ccccc4)nc4cccnc43)cc2s1` [Example 25, 6-(2-Phenylimidazo[4,5-b]pyridin-3-yl)-3H-1,3-benzothiazol-2-one]: the IC50 was 10 nM.

Turning to `CC(F)(F)c1nc2ccc(C(F)(F)F)nc2n1-c1ccc2[nH]c(=O)sc2c1` [Example 266, 6-[2-(1,1-Difluoroethyl)-5-(trifluoromethyl)imidazo[4,5-b]pyridin-3-yl]-3H-1,3-benzothiazol-2-one], the IC50 is 0.1 nM.

`FC(F)(F)c1ccc2cc(-c3ccccc3)n(-c3ccc4[nH]ccc4c3)c2n1` [Example 388, 1-(1H-Indol-5-yl)-2-phenyl-6-(trifluoromethyl)pyrrolo[2,3-b]pyridine]: the IC50 was 7.94 nM.

On to `Cc1ccc2nc(C(F)F)n(-c3cc(Cl)c4[nH]ncc4c3)c2n1` [Example 278, 3-(7-Chloro-1H-indazol-5-yl)-2-(difluoromethyl)-5-methyl-imidazo[4,5-b]pyridine], for which the IC50 was 3.16 nM.

On to `O=C1Cc2cc(-n3c(-c4ccc(F)cc4)nc4c(N5CCOCC5)ccnc43)ccc2N1` [Example 63, 5-[2-(4-Fluorophenyl)-7-morpholino-imidazo[4,5-b]pyridin-3-yl]indolin-2-one], for which the IC50 was 3.16 nM.

Regarding `O=c1[nH]c2ccc(-n3c(-c4ccc(F)nc4)nc4cccnc43)cc2s1` [Example 28, 6-[2-(6-Fluoro-3-pyridyl)imidazo[4,5-b]pyridin-3-yl]-3H-1,3-benzothiazol-2-one], the IC50 was 251 nM.

With `CCCc1ccc2nc(C(F)(F)F)n(-c3cc(C)c4[nH]ncc4c3)c2n1` [Example 224, 3-(7-Methyl-1H-indazol-5-yl)-5-propyl-2-(trifluoromethyl)-3H-imidazo[4,5-b]pyridine], the IC50 was 0.158 nM.

On to `Fc1ccc(-c2nc3c(N4CCOCC4)ccnc3n2-c2ccc3[nH]ncc3c2)cc1` [Example 62, 4-[2-(4-Fluorophenyl)-3-(1H-indazol-5-yl)imidazo[4,5-b]pyridin-7-yl]morpholine], for which the IC50 was 6.31 nM.

Take `CC(C)c1nc2cccnc2n1-c1cc(Cl)c2[nH]ncc2c1` [Example 200, 3-(7-Chloro-1H-indazol-5-yl)-2-isopropyl-imidazo[4,5-b]pyridine]: the IC50 is 6.31 nM.

Consider `O=C1Cc2cc(-n3c(-c4ccc(F)cc4)c(Br)c4cccnc43)ccc2N1` [Example 346, 5-[3-Bromo-2-(4-fluorophenyl)pyrrolo[2,3-b]pyridin-1-yl]indolin-2-one], for which the IC50 is 3.98 nM.

For the compound `COC(C)(C)c1nc2ccc(C(F)(F)F)nc2n1-c1cc(C)c2[nH]ncc2c1` [Example 251, 2-(1-Methoxy-1-methyl-ethyl)-3-(7-methyl-1H-indazol-5-yl)-5-(trifluoromethyl)imidazo[4,5-b]pyridine], the IC50 is 2.51 nM.
